Reference: ChEMBL document CHEMBL1141141, “Novel, highly potent adenosine deaminase inhibitors containing the pyrazolo[3,4-d]pyrimidine ring system. Synthesis, structure-activity relationships, and molecular modeling studies” (J Med Chem, 2005)
pKi: −log10 of the molar value.

Key:
Adenosine deaminase [1] = target: T1, Adenosine deaminase (Bos taurus, UniProt P56658)
T1 sequence (P56658 whole entry): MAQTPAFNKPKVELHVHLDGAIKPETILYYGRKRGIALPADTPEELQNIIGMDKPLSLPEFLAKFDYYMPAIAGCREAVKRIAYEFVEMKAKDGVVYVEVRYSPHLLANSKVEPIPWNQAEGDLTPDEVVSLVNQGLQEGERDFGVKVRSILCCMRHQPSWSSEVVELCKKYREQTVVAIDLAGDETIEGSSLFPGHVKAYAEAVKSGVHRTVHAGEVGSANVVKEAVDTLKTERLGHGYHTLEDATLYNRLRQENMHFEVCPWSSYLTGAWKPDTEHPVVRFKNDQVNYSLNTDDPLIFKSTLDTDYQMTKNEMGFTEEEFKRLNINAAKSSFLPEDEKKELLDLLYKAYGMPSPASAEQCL

Adenosine deaminase [2] = target: T1, Adenosine deaminase; assay: Inhibitory constant against bovine spleen Adenosine deaminase at >10e-5; n.a.=not active; type: tissue-based

Row | SMILES | pKi (Adenosine deaminase [1]) | Ki (Adenosine deaminase [2])
1 | CCCCCCCC[C@H](O)Cn1cc2c(N)ncnc2n1 | 7.43 | 
2 | CCCCCCC(O)Cn1cc2c(N)ncnc2n1 (stereo not drawn) | 9.00 | 
3 | CCCCCCCC[C@@H](O)Cn1cc2c(N)ncnc2n1 | 10.28 | 
4 | CCCCCCC(O)CN1N=CC2C(N)=NC=NC21 (stereo not drawn) |  | Not Active
5 | CCCCCCCCCCn1cc2c(N)nc(-c3ccccc3)nc2n1 |  | Not Active
6 | CCCCCCn1cc2c(N)ncnc2n1 |  | Not Active
7 | CCCCCCCCCCCN1N=CC2C(N)=NC=NC21 (stereo not drawn) |  | Not Active
8 | CCCCCCCCC(O)Cn1cc2c(N)ncnc2n1 (stereo not drawn) | 9.55 | 
9 | NC1=NC=NC2C1C=NN2Cc1ccccc1 (stereo not drawn) |  | Not Active
10 | CCCCCCCCCCn1cc2c(NC(C)=O)ncnc2n1 |  | Not Active
11 | NC1=NC=NC2C1C=NN2CCc1ccccc1 (stereo not drawn) |  | Not Active
12 | NC1=NC=NC2C1C=NN2CCO (stereo not drawn) | 5.34 | 
13 | CCCCCCC(C(C)O)N1N=CC2C(N)=NC=NC21 (stereo not drawn) | 7.18 | 
14 | Nc1ncnc2nn(CCc3ccccc3)cc12 |  | Not Active
15 | CCCCCCCCCCN1N=CC2C(N)=NC=NC21 (stereo not drawn) |  | Not Active
16 | CCCCCCCCCCCCn1cc2c(N)ncnc2n1 |  | Not Active
17 | CCCCCCCCCCCCN1N=CC2C(N)=NC=NC21 (stereo not drawn) |  | Not Active
18 | Nc1ncnc2nn(Cc3ccccc3)cc12 |  | Not Active
